Source: article PMC10536189 (Microorganisms, 2023)
Where two headings read alike, the source gives them in different places.

System: M. tuberculosis
Type: cell-based, Mycobacterium tuberculosis (laboratory strain H37Rv)
Conditions: for Time to Positivity (Days.Hours) Experiment 2a / Time to Positivity (Days.Hours) Experiment 2b: diluted inoculum; for Time to Positivity (Days.Hours) Experiment 2a: technical repeat 2a, TB control (no peptide) 15.01; for Time to Positivity (Days.Hours) Experiment 2b: technical repeat 2b, TB control (no peptide) 15.20; for Time to Positivity (Days.Hours) Experiment 1a / Time to Positivity (Days.Hours) Experiment 1b: less diluted inoculum; for Time to Positivity (Days.Hours) Experiment 1a: technical repeat 1a, TB control (no peptide) 7.02; for Time to Positivity (Days.Hours) Experiment 1b: technical repeat 1b, TB control (no peptide) 7.01; for Average % Faster than Control: negative = slower
[1] = peptide 10 µg/mL, overall average of the averages of experiments 1a/1b and 2a/2b
[2] = crude peptide 10 µg/mL, average of experiments 1 and 2
[3] = crude peptide 10 µg/mL, MGIT, independent experiment 1, Control (TB only) 11.10, inoculum emulsified through G25 needle
[4] = crude peptide 10 µg/mL, MGIT, independent experiment 2, Control (TB only) 9.10, inoculum emulsified through G25 needle

## 3: peptide from the authors' library (WKWRVRVTI) [Peptide 3]
Peptide 10 µg/mL, MGIT
  Time to Positivity (Days.Hours) Experiment 2a: 14.22 Days.Hours
  Time to Positivity (Days.Hours) Experiment 2b: 15.02 Days.Hours
  Time to Positivity (Days.Hours) Experiment 1a: 6.08 Days.Hours
  Time to Positivity (Days.Hours) Experiment 1b: 6.17 Days.Hours
[1]
  Average % Faster than Control: 4.0%

## 5: peptide from the authors' library; same sequence as P8/Designed * (FFIYVWRRR) [Peptide 5]
Peptide 10 µg/mL, MGIT
  Time to Positivity (Days.Hours) Experiment 2a: 14.06 Days.Hours
  Time to Positivity (Days.Hours) Experiment 2b: 14.16 Days.Hours
  Time to Positivity (Days.Hours) Experiment 1a: 5.21 Days.Hours
  Time to Positivity (Days.Hours) Experiment 1b: 6.08 Days.Hours
[1]
  Average % Faster than Control: 8.8%

## 9: peptide from the authors' library; same sequence as P9/Designed (KRRWRIWLV) [Peptide 9]
Peptide 10 µg/mL, MGIT
  Time to Positivity (Days.Hours) Experiment 2a: 15.08 Days.Hours
  Time to Positivity (Days.Hours) Experiment 2b: 14.21 Days.Hours
  Time to Positivity (Days.Hours) Experiment 1a: 6.07 Days.Hours
  Time to Positivity (Days.Hours) Experiment 1b: 6.04 Days.Hours
[1]
  Average % Faster than Control: 5.8%

## 12: peptide from the authors' library (RRRIKIRWY) [Peptide 12]
Peptide 10 µg/mL, MGIT
  Effect on TTP of MTB in words: strong hormetic response
  Time to Positivity (Days.Hours) Experiment 2a: 14.08 Days.Hours
  Time to Positivity (Days.Hours) Experiment 2b: 14.22 Days.Hours
  Time to Positivity (Days.Hours) Experiment 1a: 6.14 Days.Hours
  Time to Positivity (Days.Hours) Experiment 1b: 5.20 Days.Hours
[1]
  Average % Faster than Control: 10.2%

## 16: peptide from the authors' library (RLKRWWKFL) [Peptide 16]
Peptide 10 µg/mL, MGIT
  Time to Positivity (Days.Hours) Experiment 2a: 14.17 Days.Hours
  Time to Positivity (Days.Hours) Experiment 2b: 14.20 Days.Hours
  Time to Positivity (Days.Hours) Experiment 1a: 6.01 Days.Hours
  Time to Positivity (Days.Hours) Experiment 1b: 5.22 Days.Hours
[1]
  Average % Faster than Control: 8.6%

## 20: peptide from the authors' library (KWKWWWRKI) [Peptide 20]
Peptide 10 µg/mL, MGIT
  Time to Positivity (Days.Hours) Experiment 2a: 14.01 Days.Hours
  Time to Positivity (Days.Hours) Experiment 2b: 14.16 Days.Hours
  Time to Positivity (Days.Hours) Experiment 1a: 6.11 Days.Hours
  Time to Positivity (Days.Hours) Experiment 1b: 6.00 Days.Hours
[1]
  Average % Faster than Control: 8.3%

## 22: peptide from the authors' library (IRMRIRVLL) [Peptide 22]
Peptide 10 µg/mL, MGIT
  Time to Positivity (Days.Hours) Experiment 2a: 15.19 Days.Hours
  Time to Positivity (Days.Hours) Experiment 2b: 15.10 Days.Hours
  Time to Positivity (Days.Hours) Experiment 1a: 6.00 Days.Hours
  Time to Positivity (Days.Hours) Experiment 1b: 6.07 Days.Hours
[1]
  Average % Faster than Control: 4.7%

## 29: peptide from the authors' library (RWRWWWRVY) [Peptide 29]
Peptide 10 µg/mL, MGIT
  Time to Positivity (Days.Hours) Experiment 2a: 15.12 Days.Hours
  Time to Positivity (Days.Hours) Experiment 2b: 15.01 Days.Hours
  Time to Positivity (Days.Hours) Experiment 1a: 6.13 Days.Hours
  Time to Positivity (Days.Hours) Experiment 1b: 6.00 Days.Hours
[1]
  Average % Faster than Control: 4.9%

## 49: peptide from the authors' library (VRLRIRVRVIRK) [Peptide 49]
Peptide 10 µg/mL, MGIT
  Time to Positivity (Days.Hours) Experiment 2a: 15.12 Days.Hours
  Time to Positivity (Days.Hours) Experiment 2b: 15.02 Days.Hours
  Time to Positivity (Days.Hours) Experiment 1a: 5.22 Days.Hours
  Time to Positivity (Days.Hours) Experiment 1b: 6.06 Days.Hours
[1]
  Average % Faster than Control: 6.2%

## 59: peptide from the authors' library (ILKWKRKWWKWRR) [Peptide 59]
Peptide 10 µg/mL, MGIT
  Time to Positivity (Days.Hours) Experiment 2a: 13.19 Days.Hours
  Time to Positivity (Days.Hours) Experiment 2b: 12.22 Days.Hours
  Time to Positivity (Days.Hours) Experiment 1a: 5.17 Days.Hours
  Time to Positivity (Days.Hours) Experiment 1b: 5.22 Days.Hours
[1]
  Average % Faster than Control: 14.5%

## 60: peptide from the authors' library (ILKWKIFKWKWFR) [Peptide 60]
Peptide 10 µg/mL, MGIT
  Time to Positivity (Days.Hours) Experiment 2a: 14.19 Days.Hours
  Time to Positivity (Days.Hours) Experiment 2b: 14.16 Days.Hours
  Time to Positivity (Days.Hours) Experiment 1a: 6.03 Days.Hours
  Time to Positivity (Days.Hours) Experiment 1b: 6.02 Days.Hours
[1]
  Average % Faster than Control: 7.9%

## 61: peptide from the authors' library (ILKWKTKWWKWFR) [Peptide 61]
Peptide 10 µg/mL, MGIT
  Time to Positivity (Days.Hours) Experiment 2a: 13.11 Days.Hours
  Time to Positivity (Days.Hours) Experiment 2b: 14.21 Days.Hours
  Time to Positivity (Days.Hours) Experiment 1a: 6.20 Days.Hours
  Time to Positivity (Days.Hours) Experiment 1b: 5.23 Days.Hours
[1]
  Average % Faster than Control: 10.4%

## 62: peptide from the authors' library (ILKWKMFKWKWFR) [Peptide 62]
Peptide 10 µg/mL, MGIT
  Effect on TTP of MTB in words: delayed TTP
  Time to Positivity (Days.Hours) Experiment 2a: 16.20 Days.Hours
  Time to Positivity (Days.Hours) Experiment 2b: 17.16 Days.Hours
  Time to Positivity (Days.Hours) Experiment 1a: 6.07 Days.Hours
  Time to Positivity (Days.Hours) Experiment 1b: 7.02 Days.Hours
[1]
  Average % Faster than Control: −3.4%

## 63: peptide from the authors' library; same sequence as Indolicidin/Cow (ILPWKWPWWPWRR) [Peptide 63]
Peptide 10 µg/mL, MGIT
  Effect on TTP of MTB in words: delayed TTP
  Time to Positivity (Days.Hours) Experiment 2a: 17.01 Days.Hours
  Time to Positivity (Days.Hours) Experiment 2b: 17.10 Days.Hours
  Time to Positivity (Days.Hours) Experiment 1a: 6.22 Days.Hours
  Time to Positivity (Days.Hours) Experiment 1b: 6.22 Days.Hours
[1]
  Average % Faster than Control: −5.5%

## 64: peptide from the authors' library (RLARIVVIRVAR) [Peptide 64]
Peptide 10 µg/mL, MGIT
  Time to Positivity (Days.Hours) Experiment 2a: 15.21 Days.Hours
  Time to Positivity (Days.Hours) Experiment 2b: 16.13 Days.Hours
  Time to Positivity (Days.Hours) Experiment 1a: 6.19 Days.Hours
  Time to Positivity (Days.Hours) Experiment 1b: 6.16 Days.Hours
[1]
  Average % Faster than Control: −1.4%

## 65: peptide from the authors' library (RGARIVVIRVAR) [Peptide 65]
Peptide 10 µg/mL, MGIT
  Time to Positivity (Days.Hours) Experiment 2a: 16.11 Days.Hours
  Time to Positivity (Days.Hours) Experiment 2b: 16.01 Days.Hours
  Time to Positivity (Days.Hours) Experiment 1a: 6.16 Days.Hours
  Time to Positivity (Days.Hours) Experiment 1b: 6.03 Days.Hours
[1]
  Average % Faster than Control: 0.8%

## 66: peptide from the authors' library (RRARIVVIRVAR) [Peptide 66]
Peptide 10 µg/mL, MGIT
  Time to Positivity (Days.Hours) Experiment 2a: 17.06 Days.Hours
  Time to Positivity (Days.Hours) Experiment 2b: 17.16 Days.Hours
  Time to Positivity (Days.Hours) Experiment 1a: 6.05 Days.Hours
  Time to Positivity (Days.Hours) Experiment 1b: 6.16 Days.Hours
[1]
  Average % Faster than Control: −3.5%

## 67: peptide from the authors' library (RLWRIVVIRVAR) [Peptide 67]
Peptide 10 µg/mL, MGIT
  Time to Positivity (Days.Hours) Experiment 2a: 16.00 Days.Hours
  Time to Positivity (Days.Hours) Experiment 2b: 16.05 Days.Hours
  Time to Positivity (Days.Hours) Experiment 1a: 6.19 Days.Hours
  Time to Positivity (Days.Hours) Experiment 1b: 6.11 Days.Hours
[1]
  Average % Faster than Control: −0.4%

## 68: peptide from the authors' library (RLRRIVVIRVAR) [Peptide 68]
Peptide 10 µg/mL, MGIT
  Time to Positivity (Days.Hours) Experiment 2a: 15.00 Days.Hours
  Time to Positivity (Days.Hours) Experiment 2b: 15.23 Days.Hours
  Time to Positivity (Days.Hours) Experiment 1a: 6.09 Days.Hours
  Time to Positivity (Days.Hours) Experiment 1b: 6.17 Days.Hours
[1]
  Average % Faster than Control: 2.3%

## 71: peptide from the authors' library (RLWRIVVIRVKR) [Peptide 71]
Peptide 10 µg/mL, MGIT
  Time to Positivity (Days.Hours) Experiment 2a: 14.01 Days.Hours
  Time to Positivity (Days.Hours) Experiment 2b: 14.02 Days.Hours
  Time to Positivity (Days.Hours) Experiment 1a: 6.04 Days.Hours
  Time to Positivity (Days.Hours) Experiment 1b: 6.06 Days.Hours
[1]
  Average % Faster than Control: 9.4%

## 76: peptide from the authors' library (VRWRIRVAVIRA) [Peptide 76]
Peptide 10 µg/mL, MGIT
  Time to Positivity (Days.Hours) Experiment 2a: 16.08 Days.Hours
  Time to Positivity (Days.Hours) Experiment 2b: 16.14 Days.Hours
  Time to Positivity (Days.Hours) Experiment 1a: 6.13 Days.Hours
  Time to Positivity (Days.Hours) Experiment 1b: 6.16 Days.Hours
[1]
  Average % Faster than Control: −1.4%

## 77: peptide from the authors' library (VRLRIRVAVIRA) [Peptide 77]
Peptide 10 µg/mL, MGIT
  Time to Positivity (Days.Hours) Experiment 2a: 14.22 Days.Hours
  Time to Positivity (Days.Hours) Experiment 2b: 15.03 Days.Hours
  Time to Positivity (Days.Hours) Experiment 1a: 6.14 Days.Hours
  Time to Positivity (Days.Hours) Experiment 1b: 6.04 Days.Hours
[1]
  Average % Faster than Control: 5.0%

## ALKAALLAILKIVRVI [CM-3/Designed]
  Time to Positivity (Day.Hours) Experiment 1: 11.04 Day.Hours
  Time to Positivity (Day.Hours) Experiment 2: 8.03 Day.Hours
[2]
  Average % Faster than Control: 8.0%

## Bombolitin V/Bee: naturally occurring peptide, APD3, bee (INVLGILGLLGKALSHL)
  Time to Positivity (Day.Hours) Experiment 1: 10.22 Day.Hours
  Time to Positivity (Day.Hours) Experiment 2: 8.13 Day.Hours
[2]
  Average % Faster than Control: 6.8%

## CM15/Bee venom: peptide from APD3, bee venom (KWKLFKKIGAVLKVL)
  Time to Positivity (Day.Hours) Experiment 1: 10.19 Day.Hours
  Time to Positivity (Day.Hours) Experiment 2: 8.01 Day.Hours
[2]
  Average % Faster than Control: 10.0%

## Eumenitin/Wasp: naturally occurring peptide, APD3, wasp (LNLKGIFKKVASLLT)
  Time to Positivity (Day.Hours) Experiment 1: 11.00 Day.Hours
  Time to Positivity (Day.Hours) Experiment 2: 8.08 Day.Hours
[2]
  Average % Faster than Control: 7.6%

## FFGSVLKLIPKIL [Temporin-PTa/Frog, naturally occurring peptide, APD3, frog]
[3]
  Time to Positivity (Day.Hours) Experiment 1: 11.07 Day.Hours
[4]
  Time to Positivity (Day.Hours) Experiment 2: 8.08 Day.Hours
[2]
  Average % Faster than Control: 6.3%

## FFHHIFRGIVHVGKTI [Piscidin 1/Fish *, fragment of naturally occurring peptide, APD3, fish]
[3]
  Time to Positivity (Day.Hours) Experiment 1: 10.18 Day.Hours
[4]
  Time to Positivity (Day.Hours) Experiment 2: 8.12 Day.Hours
[2]
  Average % Faster than Control: 7.8%

## FFIYVWRRR [P8/Designed *]
  Time to Positivity (Day.Hours) Experiment 1: 11.16 Day.Hours
  Time to Positivity (Day.Hours) Experiment 2: 8.22 Day.Hours
[2]
  Average % Faster than Control: 1.6%
